Test results taken from the supplement of paper PMC8967900.

Legend:
Test in all cases: selective drug sensitivity score (sDSS, relative to normal bone marrow) (sDSS (score)); higher = more potent and effective on the cell line relative to normal bone marrow cells
Details in all cases: 72 h
NALM-6 = tested on: NALM-6
DND-41 = tested on: DND-41
KASUMI-2 = tested on: KASUMI-2
PF-382 = tested on: PF-382
REH = tested on: REH
KASUMI-10 = tested on: KASUMI-10
MOLT-4 = tested on: MOLT-4
KOPN-8 = tested on: KOPN-8
MHH-CALL-4 = tested on: MHH-CALL-4
NALL-1 = tested on: NALL-1
MHH-CALL-3 = tested on: MHH-CALL-3
JURKAT = tested on: JURKAT
ALL-SIL = tested on: ALL-SIL
COG-LL-317 = tested on: COG-LL-317
COG-LL-332h = tested on: COG-LL-332h
KASUMI-9 = tested on: KASUMI-9
LC4-1 = tested on: LC4-1
HAL-01 = tested on: HAL-01
MHH-CALL-2 = tested on: MHH-CALL-2
PEER = tested on: PEER
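Also: ALL cell lines in 384-well plates, five doses spanning 10,000-fold, each plate scaled between vehicle and 100 µmol/L benzalkonium chloride controls, sDSS an adapted area-under-curve metric.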

Row | Compound | selective drug sensitivity score (NALM-6) | selective drug sensitivity score (DND-41) | selective drug sensitivity score (KASUMI-2) | selective drug sensitivity score (PF-382) | selective drug sensitivity score (REH) | selective drug sensitivity score (KASUMI-10) | selective drug sensitivity score (MOLT-4) | selective drug sensitivity score (KOPN-8) | selective drug sensitivity score (MHH-CALL-4) | selective drug sensitivity score (NALL-1) | selective drug sensitivity score (MHH-CALL-3) | selective drug sensitivity score (JURKAT) | selective drug sensitivity score (ALL-SIL) | selective drug sensitivity score (COG-LL-317) | selective drug sensitivity score (COG-LL-332h) | selective drug sensitivity score (KASUMI-9) | selective drug sensitivity score (LC4-1) | selective drug sensitivity score (HAL-01) | selective drug sensitivity score (MHH-CALL-2) | selective drug sensitivity score (PEER)
1 | CN1CC[C@H](c2c(O)cc(O)c3c(=O)cc(-c4ccccc4Cl)oc23)[C@H](O)C1 [Alvocidib] (top concentration 10000 nM) | -1.2 | -4.1 | -2.8 | -3.3 | -2 | -2.9 | -2.5 | -1.2 | -3.8 | -7.1 | -3.6 | -2.6 | -3.3 | 1.7 | -0.3 | -0.7 | -3.3 | -3.5 | -3.5 | -2.1
2 | CC(C)c1c(C(=O)Nc2ccccc2)c(-c2ccccc2)c(-c2ccc(F)cc2)n1CC[C@@H](O)C[C@@H](O)CC(=O)O [Atorvastatin] (top concentration 10000 nM) | 1.4 | 1.9 | -3.7 | -1 | 1 | -1.8 | -2.1 | 6.6 | 0.1 | 0.1 | -3.7 | -3.7 | 4.2 | 8 | 1.2 | -3.7 | 4.9 | -1.9 | 0 | 2
3 | Nc1ncn([C@@H]2O[C@H](CO)[C@@H](O)[C@H]2O)c(=O)n1 [Azacitidine] (top concentration 10000 nM) | 3.34 | 2.14 | -0.36 | 4.44 | 9.44 | 3.64 | 4.94 | 8.74 | 6.14 | 4.14 | 4.24 | 4.04 | 5.94 | 7.74 | 3.64 | 5.14 | 6.04 | 3.84 | 5.84 | 6.64
4 | Cc1cc(-c2nc(-c3ccc(OC(F)(F)F)cc3)no2)nn1Cc1ccnc(N2CCN(C3CC3)CC2)c1 [BAY_87-2243] (top concentration 1000 nM) | 10 | 6.84 | -8.66 | 16.9 | 17.1 | -6.66 | 25.1 | 6.34 | 11.9 | 0.04 | -6.36 | 30.1 | 10.1 | -0.96 | 5.54 | 5.24 | 3.84 | -0.66 | 8.64 | 27.4
5 | O=C(Nc1cccc(Nc2ncc(Br)c(NCCc3cnc[nH]3)n2)c1)N1CCCC1 [BX-912] (top concentration 10000 nM) | 6.46 | 2.56 | 5.86 | 5.06 | 7.96 | 12.8 | 6.56 | 12.4 | 3.06 | 7.36 | 3.06 | -1.34 | 9.36 | 9.46 | 7.56 | 10.5 | 12.3 | -3.64 | 2.86 | 10.6
6 | C=C(c1ccc(C(=O)O)cc1)c1cc2c(cc1C)C(C)(C)CCC2(C)C [Bexarotene] (top concentration 10000 nM) | -3.4 | -5.3 | -5.3 | -4.6 | -3.8 | -1.9 | 2.2 | 8 | 3.3 | -4.5 | 10.2 | -2.7 | -4.2 | -5.1 | -1.7 | -3.4 | 0.2 | -0.9 | 3.5 | -3.8
7 | Cn1cnc2c(F)c(Nc3ccc(Br)cc3F)c(C(=O)NOCCO)cc21 [Binimetinib] (top concentration 1000 nM) | 5.78 | -2.22 | -2.22 | -1.82 | 4.48 | 0.28 | -2.02 | 10.3 | 4.98 | -2.22 | 7.18 | -2.02 | -1.02 | -2.12 | -2.22 | -0.92 | 2.18 | 8.28 | 5.28 | 0.58
8 | COc1cc(N2CCC(N3CCN(C)CC3)CC2)ccc1Nc1ncc(Cl)c(Nc2ccccc2P(C)(C)=O)n1 [Brigatinib] (top concentration 1000 nM) | 0.26 | 7.16 | -3.24 | -2.84 | -3.34 | 4.76 | 0.36 | -3.34 | -3.34 | -3.34 | -3.34 | -3.34 | -3.34 | -2.34 | -3.34 | 3.56 | -0.94 | 6.06 | 7.66 | -3.34
9 | CC1=NN(c2ccc(C(=O)O)cc2)C(=O)C1=Cc1ccc(-c2cc(C)c(C)cc2[N+](=O)[O-])o1 [C646] (top concentration 25000 nM) | -2.06 | 2.94 | 15.1 | 0.64 | 4.44 | -0.36 | 0.24 | 2.44 | -2.06 | -2.06 | 4.64 | 0.94 | 6.14 | 1.74 | 1.74 | 4.74 | 1.84 | -2.06 | -2.06 | -0.66
10 | CCN1C(=O)CNc2ncc(-c3ccc(-c4nc[nH]n4)nc3C)nc21 [CC-115] (top concentration 10000 nM) | 1.24 | 6.74 | 5.74 | 2.14 | 0.44 | 0.14 | 3.04 | 17.5 | 7.34 | 4.24 | 1.34 | 1.24 | 1.34 | 0.54 | 2.54 | 4.54 | 4.54 | 2.54 | 8.34 | 2.34
11 | Cc1noc2c1-c1ccccc1C(c1ccc(Cl)cc1)=N[C@H]2CC(N)=O [CPI-0610] (top concentration 10000 nM) | 5.6 | 1.6 | -5.8 | 3.5 | -1.2 | 4.6 | -2.6 | 11.1 | -4.1 | -4.4 | 17.9 | -0.2 | -0.6 | 3.3 | -2.8 | 8.4 | 3.6 | -2.2 | -3 | -1.9
12 | Cc1cc(Nc2ncc(Cl)c(Nc3ccccc3S(=O)(=O)C(C)C)n2)c(OC(C)C)cc1C1CCNCC1 [Ceritinib] (top concentration 2500 nM) | -0.74 | -3.44 | -3.44 | -3.24 | -2.84 | 0.36 | -3.44 | -3.44 | -0.74 | -2.14 | -3.44 | -3.44 | 4.36 | -3.44 | -3.44 | -2.04 | 3.06 | -1.44 | -0.04 | -3.44
13 | Nc1nc(Cl)nc2c1ncn2[C@@H]1O[C@H](CO)[C@@H](O)[C@@H]1F [Clofarabine] (top concentration 10000 nM) | 2.1 | 1.4 | 8.3 | 1.8 | 2.3 | 1 | 3.7 | 6.7 | 6.5 | 1.8 | 10.9 | 1.9 | 4.9 | 7.1 | 4.3 | 7.3 | 9.2 | 2.7 | 9.2 | -5.9
14 | CC1(COc2ccc3c(c2)ncn3-c2ccc3cccc(N4CCC(N)CC4)c3n2)COC1 [Crenolanib] (top concentration 10000 nM) | -4.02 | 0.98 | -5.22 | 0.08 | -4.32 | 12.9 | -4.02 | 0.68 | 0.68 | 1.58 | -5.32 | -1.12 | 0.28 | 2.08 | -0.82 | -0.02 | -3.92 | -1.82 | 3.28 | -1.52
15 | Cc1nc(Nc2ncc(C(=O)Nc3c(C)cccc3Cl)s2)cc(N2CCN(CCO)CC2)n1 [Dasatinib] (top concentration 1000 nM) | 3.3 | 1.4 | -2.8 | 10.8 | -2.8 | -2.8 | 1.9 | 0.4 | -2.8 | -2.8 | -2.8 | -2.8 | 41.4 | -0.7 | 17 | 3.1 | -2.8 | -2.8 | -2.8 | 17.2
16 | CCc1cnn2c(NCc3ccc[n+]([O-])c3)cc(N3CCCC[C@H]3CCO)nc12 [Dinaciclib] (top concentration 1000 nM) | -2.04 | -0.14 | -7.74 | -5.94 | -5.84 | -2.24 | -5.84 | -6.34 | -4.04 | -6.24 | 1.76 | -5.64 | -1.74 | 1.26 | -1.54 | 1.26 | -3.64 | -5.74 | -3.74 | -0.24
17 | COc1cccc2c1C(=O)c1c(O)c3c(c(O)c1C2=O)C[C@@](O)(C(=O)CO)C[C@@H]3O[C@H]1C[C@H](N)[C@H](O)[C@H](C)O1 [Doxorubicin] (top concentration 1000 nM) | 3.38 | 1.58 | 7.68 | 3.08 | 9.28 | 7.48 | 10.5 | 13.3 | 9.08 | -1.92 | 14.8 | 2.78 | 1.68 | 15 | 11.3 | 7.48 | 5.48 | 1.38 | 10.4 | -3.62
18 | C=C1C[C@@H]2[C@H](CC[C@]3(C)C(=O)CC[C@@H]23)[C@@]2(C)C=CC(=O)C=C12 [Exemestane] (top concentration 10000 nM) | 1.5 | -1.9 | 2.3 | -0.4 | -1.9 | -1.9 | -1.9 | 5.8 | -1.9 | -1.9 | 0.1 | -1.4 | -1.9 | 0 | 2.4 | -0.8 | 3.6 | 3.8 | -0.9 | -1.5
